Source: ChEMBL document CHEMBL1201862, “PubChem BioAssay data set” (2004)
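All cell lines were grown in 96-well plates and treated with compound for 48 hours. GI50 = concentration required for 50% inhibition of growth.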 The source made the active and inactive calls. Rule as the data show it: active = GI50 up to about 1.1 µM and inactive = higher.

What was measured:
Assay in all cases: NCI tumour cell line growth inhibition, 48 h
LOX IMVI = system: LOX IMVI
COLO 205 = system: COLO 205
UO-31 = system: UO-31
SF-295 = system: SF-295
OVCAR-8 = system: OVCAR-8
SF-268 = system: SF-268
SN12C = system: SN12C
HOP-92 = system: HOP-92
SK-MEL-2 = system: SK-MEL-2
MOLT-4 = system: MOLT-4
IGROV-1 = system: IGROV-1
Malme-3M = system: Malme-3M
SK-OV-3 = system: SK-OV-3
CCRF-CEM = system: CCRF-CEM
NCI-H23 = system: NCI-H23
RXF 393 = system: RXF 393
SNB-75 = system: SNB-75
CAKI-1 = system: CAKI-1
OVCAR-4 = system: OVCAR-4
M14 = system: M14

Compound	GI50 (LOX IMVI)	GI50 (COLO 205)	GI50 (UO-31)	GI50 (SF-295)	GI50 (OVCAR-8)	GI50 (SF-268)	GI50 (SN12C)	GI50 (HOP-92)	GI50 (SK-MEL-2)	GI50 (MOLT-4)	GI50 (IGROV-1)	GI50 (Malme-3M)	GI50 (SK-OV-3)	GI50 (CCRF-CEM)	GI50 (NCI-H23)	GI50 (RXF 393)	GI50 (SNB-75)	GI50 (CAKI-1)	GI50 (OVCAR-4)	GI50 (M14)
Cc1cc(NC(=S)Nc2ccccc2)c(NC(=S)Nc2ccccc2)cc1C	39.4 µM (inactive)	26.1 µM (inactive)	21.6 µM (inactive)	11.4 µM (inactive)	40.1 µM (inactive)	36.8 µM (inactive)	40.4 µM (inactive)	41.9 µM (inactive)	16.9 µM (inactive)	12.8 µM (inactive)	22.8 µM (inactive)	37.8 µM (inactive)	35 µM (inactive)	13.5 µM (inactive)	37.2 µM (inactive)	> 46.8 µM (inactive)	27 µM (inactive)	9.91 µM (inactive)	32.3 µM (inactive)	–
CCOc1ncn(-c2ccc(NC(=S)Nc3ncccn3)cc2)n1	17.6 µM (inactive)	29.5 µM (inactive)	18.6 µM (inactive)	97.5 µM (inactive)	24.8 µM (inactive)	> 100 µM (inactive)	51.1 µM (inactive)	33.5 µM (inactive)	–	20.1 µM (inactive)	26.5 µM (inactive)	–	> 100 µM (inactive)	20 µM (inactive)	81.5 µM (inactive)	–	12.1 µM (inactive)	–	21.8 µM (inactive)	31.5 µM (inactive)
O=C(CCN1CCOCC1)/C(=C/c1ccccc1)c1ccccc1	2.61 µM (inactive)	3.89 µM (inactive)	14 µM (inactive)	12.3 µM (inactive)	1.95 µM (inactive)	7.11 µM (inactive)	4.15 µM (inactive)	3.5 µM (inactive)	8.17 µM (inactive)	2.03 µM (inactive)	9.93 µM (inactive)	2.24 µM (inactive)	19.3 µM (inactive)	1.98 µM (inactive)	4.15 µM (inactive)	1.57 µM (inactive)	9.14 µM (inactive)	5.14 µM (inactive)	10.3 µM (inactive)	–
O=C(Nc1ccccc1C(=O)NCCCO)/C(=C/c1ccccc1O)NC(=O)c1ccccc1	21.5 µM (inactive)	> 100 µM (inactive)	20.7 µM (inactive)	34.4 µM (inactive)	> 42.7 µM (inactive)	35.6 µM (inactive)	> 80.9 µM (inactive)	53.3 µM (inactive)	44.3 µM (inactive)	> 100 µM (inactive)	36.6 µM (inactive)	95.3 µM (inactive)	51.5 µM (inactive)	> 100 µM (inactive)	36.1 µM (inactive)	28.1 µM (inactive)	20.2 µM (inactive)	> 100 µM (inactive)	56.8 µM (inactive)	55.6 µM (inactive)
CCP(=O)(CC)C(Cl)(Cl)C(O)C(Cl)(Cl)Cl (configuration not stated)	> 100 µM (inactive)	> 100 µM (inactive)	> 100 µM (inactive)	> 100 µM (inactive)	> 100 µM (inactive)	–	> 100 µM (inactive)	> 100 µM (inactive)	> 100 µM (inactive)	> 100 µM (inactive)	> 100 µM (inactive)	–	> 100 µM (inactive)	> 100 µM (inactive)	> 100 µM (inactive)	–	> 100 µM (inactive)	> 100 µM (inactive)	> 100 µM (inactive)	> 100 µM (inactive)
Cc1c(C)c2ccc(OCC(O)COC(C)C)c(C)c2oc1=O (configuration not stated)	18.7 µM (inactive)	> 10 µM (inactive)	41.8 µM (inactive)	23.5 µM (inactive)	28.2 µM (inactive)	> 100 µM (inactive)	–	33.2 µM (inactive)	20.1 µM (inactive)	> 10 µM (inactive)	70.6 µM (inactive)	16.2 µM (inactive)	> 100 µM (inactive)	27.5 µM (inactive)	91.6 µM (inactive)	–	–	41.7 µM (inactive)	> 10 µM (inactive)	20.8 µM (inactive)
CCOC(=O)Cc1cc(OC)c(OC)cc1/C(Cl)=C(\C=O)c1ccc(OC)c(OC)c1	17.9 µM (inactive)	21.8 µM (inactive)	26.1 µM (inactive)	15.2 µM (inactive)	25.5 µM (inactive)	–	15.2 µM (inactive)	1 µM (active)	19.7 µM (inactive)	16.9 µM (inactive)	28.6 µM (inactive)	27.4 µM (inactive)	37.1 µM (inactive)	> 10 µM (inactive)	19.6 µM (inactive)	57.8 µM (inactive)	32.1 µM (inactive)	29.4 µM (inactive)	18.5 µM (inactive)	16.1 µM (inactive)
O=C1c2cccc(O)c2C(=O)c2c(O)cc(CO)cc21 [ALOE-EMODIN]	26.2 µM (inactive)	31.7 µM (inactive)	–	96.2 µM (inactive)	–	52.4 µM (inactive)	35.4 µM (inactive)	> 100 µM (inactive)	91.8 µM (inactive)	40.8 µM (inactive)	–	20.8 µM (inactive)	> 100 µM (inactive)	31.3 µM (inactive)	> 100 µM (inactive)	> 100 µM (inactive)	72.8 µM (inactive)	49.1 µM (inactive)	77.8 µM (inactive)	38.4 µM (inactive)
CCOC(=O)NC(Nc1ncccn1)(C(F)(F)F)C(F)(F)F	> 100 µM (inactive)	–	> 100 µM (inactive)	–	–	> 100 µM (inactive)	> 100 µM (inactive)	–	> 100 µM (inactive)	> 100 µM (inactive)	–	> 100 µM (inactive)	> 100 µM (inactive)	> 100 µM (inactive)	> 100 µM (inactive)	> 100 µM (inactive)	> 100 µM (inactive)	–	–	> 100 µM (inactive)
CC(Sc1ccccc1)C(CO)(CO)[N+](=O)[O-] (configuration not stated)	7.85 µM (inactive)	–	10.6 µM (inactive)	14.7 µM (inactive)	14.8 µM (inactive)	22.8 µM (inactive)	16.8 µM (inactive)	–	18.2 µM (inactive)	3.64 µM (inactive)	15.6 µM (inactive)	18.9 µM (inactive)	22.2 µM (inactive)	1.85 µM (inactive)	16.8 µM (inactive)	16.4 µM (inactive)	20.5 µM (inactive)	17.9 µM (inactive)	17.8 µM (inactive)	16.9 µM (inactive)
CC1=C2C(O)C(C(C)C(=O)N(C)C)CCC2(C)C=CC1=O (configuration not stated)	> 100 µM (inactive)	> 100 µM (inactive)	> 100 µM (inactive)	> 100 µM (inactive)	> 100 µM (inactive)	> 100 µM (inactive)	> 100 µM (inactive)	> 100 µM (inactive)	> 100 µM (inactive)	> 100 µM (inactive)	> 100 µM (inactive)	–	> 100 µM (inactive)	> 100 µM (inactive)	> 100 µM (inactive)	> 100 µM (inactive)	> 100 µM (inactive)	> 100 µM (inactive)	> 100 µM (inactive)	–
CC1=Nc2c(N)nc(N)nc2N(C)C1	–	> 100 µM (inactive)	74.3 µM (inactive)	> 100 µM (inactive)	> 100 µM (inactive)	> 100 µM (inactive)	> 100 µM (inactive)	–	> 100 µM (inactive)	> 100 µM (inactive)	> 100 µM (inactive)	> 100 µM (inactive)	> 100 µM (inactive)	> 100 µM (inactive)	> 100 µM (inactive)	> 100 µM (inactive)	> 100 µM (inactive)	> 100 µM (inactive)	–	> 100 µM (inactive)
O=C(N/C(=C\c1ccccc1[N+](=O)[O-])c1nc2ccccc2[nH]1)c1ccccc1	–	> 100 µM (inactive)	45.8 µM (inactive)	55.8 µM (inactive)	71.3 µM (inactive)	–	> 100 µM (inactive)	40.1 µM (inactive)	> 100 µM (inactive)	35.1 µM (inactive)	> 100 µM (inactive)	> 100 µM (inactive)	> 100 µM (inactive)	57.9 µM (inactive)	> 100 µM (inactive)	56.1 µM (inactive)	–	> 100 µM (inactive)	> 100 µM (inactive)	> 100 µM (inactive)
Cc1nc(Cl)c(C)c(Cl)n1	33 µM (inactive)	> 100 µM (inactive)	–	> 100 µM (inactive)	> 100 µM (inactive)	> 100 µM (inactive)	> 100 µM (inactive)	–	> 100 µM (inactive)	6.17 µM (inactive)	15.9 µM (inactive)	> 100 µM (inactive)	> 100 µM (inactive)	18.7 µM (inactive)	35.3 µM (inactive)	> 100 µM (inactive)	> 100 µM (inactive)	0.0216 µM (active)	52.7 µM (inactive)	37.7 µM (inactive)
Cc1nc(O)nc(O)c1/C=C/C(=O)O	> 1000 µM (inactive)	> 1000 µM (inactive)	> 1000 µM (inactive)	> 1000 µM (inactive)	> 1000 µM (inactive)	> 1000 µM (inactive)	> 1000 µM (inactive)	56.6 µM (inactive)	> 1000 µM (inactive)	> 1000 µM (inactive)	> 1000 µM (inactive)	> 1000 µM (inactive)	> 1000 µM (inactive)	> 1000 µM (inactive)	> 1000 µM (inactive)	> 1000 µM (inactive)	> 1000 µM (inactive)	> 1000 µM (inactive)	> 1000 µM (inactive)	–
CCC1C(C#N)=C(O)NC(O)=C1C#N	> 100 µM (inactive)	> 100 µM (inactive)	> 100 µM (inactive)	> 100 µM (inactive)	> 100 µM (inactive)	> 100 µM (inactive)	> 100 µM (inactive)	> 100 µM (inactive)	> 100 µM (inactive)	–	> 100 µM (inactive)	> 100 µM (inactive)	> 100 µM (inactive)	–	> 100 µM (inactive)	> 100 µM (inactive)	> 100 µM (inactive)	> 100 µM (inactive)	> 100 µM (inactive)	> 100 µM (inactive)
